We go through three compounds from patent US8039621B2, “Process for preparing anhydrous Aripirazole type I” (Cambrex Charles City, Inc., priority 2006, dated 2011).

This data set is described as follows: Hygroscopicity of dried anhydrous aripiprazole Type I crystals. The note with it: vacuum of 22 inches Hg. It counts as physicochemical. As to the method: […] A dish of phosphorous pentoxide (dessicant) also was placed in the oven. Periodically, approximately a one (1) gram sample of the aripiprazole wet cake was removed from the oven and analyzed for moisture content by the volumetric Karl Fischer titration method and also for its hygroscopicity. At the end of the 40 hour period, the moisture content of the final sample was analyzed using the coulometric Karl Fischer titration method and the hygroscopicity of the sample also was determined.
Another portion of the aripiprazole wet cake (20 g), prepared in accordance with the above-described procedure, was placed in a drying oven, the oven maintained at a temperature between 70 to 80° C., and under a vacuum of 22 inches Hg for a period of 40 hours. A dish of phosphorous pentoxide (dessicant) also was placed in the oven to facilitate drying. Periodically, approximately a one (1) gram sample of the aripiprazole wet cake was removed from the oven and analyzed for moisture content by the volumetric Karl Fischer titration method and also for its hygroscopicity. At the end of the 40 hours, the moisture content of the final sample was analyzed using the coulometric Karl Fischer titration method and the hygroscopicity of the sample also was determined.

Setting [1] is: final sample after 40 Hours in 60 to 65° C. Oven.
Setting [2] is: final sample after 40 Hours in 70 to 80° C. Oven.

For `O=C1CCc2ccc(OCCCCN3CCN(c4cccc(Cl)c4Cl)CC3)cc2N1` [Batch 1, 7-[4-[4-(2,3-dichlorophenyl)-1-piperazinyl]butoxy]-3,4-dihydro-2-(1H)-quinolinone], the “Hygroscopicity (%)” value is listed as 3.2% under setting [1] and 0.8% under setting [2].

Regarding `O=C1CCc2ccc(OCCCCN3CCN(c4cccc(Cl)c4Cl)CC3)cc2N1` [Batch 3, 7-[4-[4-(2,3-dichlorophenyl)-1-piperazinyl]butoxy]-3,4-dihydro-2-(1H)-quinolinone], the “Hygroscopicity (%)” value under setting [1] stood at 1.8% and the “Hygroscopicity (%)” value under setting [2] turned out to be 0.4%.

For `O=C1CCc2ccc(OCCCCN3CCN(c4cccc(Cl)c4Cl)CC3)cc2N1` [Batch 2, 7-[4-[4-(2,3-dichlorophenyl)-1-piperazinyl]butoxy]-3,4-dihydro-2-(1H)-quinolinone], the “Hygroscopicity (%)” value runs as follows: under setting [1], 1.2%; under setting [2], 0.7%.
